The values below come from article PMC5242521 (PLoS ONE, 2017).

Each structure is given as a SMILES string.

For one series, the target named is T1, OATP2B1 (Homo sapiens, UniProt O94956).
T1 sequence (O94956 1-709): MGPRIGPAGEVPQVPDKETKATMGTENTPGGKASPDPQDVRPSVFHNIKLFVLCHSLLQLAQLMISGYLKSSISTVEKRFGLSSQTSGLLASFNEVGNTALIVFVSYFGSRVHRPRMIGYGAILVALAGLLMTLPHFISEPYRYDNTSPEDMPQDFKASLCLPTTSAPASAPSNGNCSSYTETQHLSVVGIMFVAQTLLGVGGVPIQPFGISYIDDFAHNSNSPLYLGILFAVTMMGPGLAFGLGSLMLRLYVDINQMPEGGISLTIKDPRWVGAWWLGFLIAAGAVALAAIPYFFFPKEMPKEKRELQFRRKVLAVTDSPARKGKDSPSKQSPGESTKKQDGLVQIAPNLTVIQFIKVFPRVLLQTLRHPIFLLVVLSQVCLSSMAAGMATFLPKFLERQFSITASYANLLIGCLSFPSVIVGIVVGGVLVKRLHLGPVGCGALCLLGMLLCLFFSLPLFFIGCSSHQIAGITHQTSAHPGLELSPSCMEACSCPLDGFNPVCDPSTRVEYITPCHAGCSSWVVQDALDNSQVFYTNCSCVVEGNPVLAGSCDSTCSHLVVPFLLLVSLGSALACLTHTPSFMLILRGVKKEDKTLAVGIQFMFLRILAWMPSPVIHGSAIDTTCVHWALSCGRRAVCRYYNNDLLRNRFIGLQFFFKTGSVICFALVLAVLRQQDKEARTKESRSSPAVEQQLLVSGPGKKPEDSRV
The series is described as follows: OATP2B1 activity: E3S accumulation in HEK-OATP2B1 cells. The following applies: for effect on OATP2B1 activity: pyrethroid 100 μM. On the procedure: (§1) The effects of pyrethroids on activity of ABC and SLC transporters were determined through measuring cellular accumulation or retention of fluorescent or radiolabeled reference substrates for transporters, in the presence or absence of reference inhibitors, as previously described. The nature of cells and reference substrates and inhibitors used for transport assays are summarized in S3 Table.
The nature of substrates and reference inhibitors and the incubation times with substrates, that varied according to the transporter, were selected in agreement with previous studies and are indicated in S3 Table. The total incubation volume with substrates was 200 μL/well. […] An aliquot of cell lysate (5 μL) was then taken for determining cellular protein content by the Bradford method.
(§2) Intracellular concentrations of reference substrates were initially expressed as fluorescence arbitrary units (for fluorescent dye substrates) or as moles (for radiolabeled substrates) and normalized to cellular protein content, determined by the Bradford method. They were finally used for calculating percentage of transporter activity, according to the following equations [41, 45]: %ABCtransporter activity=([Substrateref inh]-[Substratepyrethroid])×100/([Substrateref inh]-[Substratecontrol]) (1) %SLC transporter activity=([Substratepyrethroid]-[Substratref inh])×100/([Substratecontrol]-[Substrateref inh]) (2) with [Substratepyrethroid] = cellular concentration of reference substrate in the presence of pyrethroid, [Substrateref inh] = cellular concentration of reference substrate in the presence of reference inhibitor and [Substratecontrol] = cellular concentration of reference substrate in control cells not exposed to pyrethroid or reference inhibitor.
(§3) The initial tested concentration of pyrethroids was 100 μM. […] Such concentrations were calculated using GraphPad Prism software (GraphPad Software, La Jolla, CA), through nonlinear regression based on the four parameter logistic function using the following equations: […]

A further series has as its target T2, OAT3 (Homo sapiens, UniProt Q8TCC7).
T2 sequence (Q8TCC7 1-542): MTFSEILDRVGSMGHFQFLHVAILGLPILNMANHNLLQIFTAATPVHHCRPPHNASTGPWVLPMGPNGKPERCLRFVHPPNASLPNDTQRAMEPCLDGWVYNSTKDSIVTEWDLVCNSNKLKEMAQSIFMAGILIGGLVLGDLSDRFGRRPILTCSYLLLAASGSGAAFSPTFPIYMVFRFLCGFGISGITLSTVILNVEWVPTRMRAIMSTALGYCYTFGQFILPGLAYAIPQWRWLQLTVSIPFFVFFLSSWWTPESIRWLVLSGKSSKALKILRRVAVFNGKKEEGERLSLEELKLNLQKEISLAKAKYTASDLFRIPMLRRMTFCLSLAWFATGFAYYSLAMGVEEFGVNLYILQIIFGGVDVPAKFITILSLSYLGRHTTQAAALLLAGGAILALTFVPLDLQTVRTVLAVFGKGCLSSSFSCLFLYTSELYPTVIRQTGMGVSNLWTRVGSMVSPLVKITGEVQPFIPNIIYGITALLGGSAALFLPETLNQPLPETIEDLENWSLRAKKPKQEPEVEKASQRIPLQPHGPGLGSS
As to the kind of experiment: OAT3 activity: fluorescein accumulation in HEK-OAT3 cells. The following applies: for effect on OAT3 activity: pyrethroid 100 μM; for inhibition at 100 μM: human, pH 7.4. How it is done:
as §1
For accumulation assays (performed for all transporters, excepted BCRP), transporter-expressing cells usually cultured in 48-well plates were first incubated at 37°C with reference substrates in the absence (control) or presence of pyrethroids or reference inhibitors, in a well-defined transport assay medium, consisting of 136 mM NaCl, 5.3 mM KCl, 1.1mM KH2PO4, 0.8 mM MgSO4, 1.8 mM CaCl2, 10 mM HEPES, 11 mM D-glucose and adjusted to pH = 7.4 (excepted for MATE transporter assays, for which pH was set to 8.4). The nature of substrates and reference inhibitors and the incubation times with substrates, that varied according to the transporter, were selected in agreement with previous studies and are indicated in S3 Table. The total incubation volume with substrates was 200 μL/well. After washing twice in phosphate-buffered saline (PBS) (200 μL/well/washing), cells were lysed in distilled water (155 μL/well). An aliquot of cell lysate (5 μL) was then taken for determining cellular protein content by the Bradford method. The rest of lysate (150 μL/well) was used for measuring intracellular accumulation of reference substrates by scintillation counting or spectrofluorimetry using a SpectraMax Gemini SX spectrofluorometer (Molecular Devices, Sunnyvale, CA, USA) (excitation and emission wavelengths were 485 and 535 nm, respectively, for rhodamine 123 and fluorescein, and 355 and 460 nm, respectively, for DAPI).
as §2, §3

As for `C#CCN1CC(=O)N(COC(=O)[C@@H]2C(C=C(C)C)C2(C)C)C1=O` (mixture of isomers) [imiprothrin], the “effect on OATP2B1 activity” value at OATP2B1 was “cis-stimulated”. Besides, the “effect on OAT3 activity” value on OAT3 is on record as “inhibited”.

Consider `C#CCC1=C(C)C(OC(=O)C2C(C=C(C)C)C2(C)C)CC1=O` (centres unmarked) [prallethrin], for which the “effect on OATP2B1 activity” value on OATP2B1 is on record as “cis-stimulated”. Besides, the “effect on OAT3 activity” value at OAT3 is “inhibited”.

Turning to `C=CCC1=C(C)C(OC(=O)C2C(C=C(C)C)C2(C)C)CC1=O` (centres unmarked) [allethrin], at OATP2B1, the EC50 is 37.8 µM and the “effect on OATP2B1 activity” value is listed as “cis-stimulated”. On OAT3, this compound came in with an IC50 of 69.4 µM and an inhibition at 100 μM of 74.8%.

Compound `CC(C)=CC1C(C(=O)OCN2C(=O)C3=C(CCCC3)C2=O)C1(C)C` (centres unmarked) [tetramethrin] had an EC50 on OATP2B1 of 10.1 µM. In addition, at OAT3, the half-inhibitory concentration (IC50) stood at 77.6 µM and the inhibition at 100 μM is 69.3%.

As usually defined, the EC50 is the concentration at which the effect is half-maximal. High values mean a need for much substance, low ones an effect from little substance. Usually IC50 stands for the point on the concentration scale where inhibition reaches its midpoint. The inhibition is the percentage by which the read-out fell short of the control. A lower inhibition goes with a response near the control.
